According to PubChem BioAssay AID256 (DTP/NCI, 2004):
Values joined by “and” are separate entries in the source; they are usually repeats but may differ in a detail not shown here. Equal entries are not always repeated. Toxic doses and inconclusive results are not listed. Rule for the calls: active = survival T/C of 150% or more; inactive = T/C below 125% in these data.

Test system: CD2F1 mice, L1210 leukemia ip, survival T/C
Test: NCI In Vivo Anticancer Drug Screen. Data for tumor model L1210 Leukemia (intraperitoneal) in CD2F1 (CDF1) mice
Conditions: higher = longer survival
Method in brief: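 Antitumor effect is scored in animals hosting a serially transplanted tumor. Values compare compound-dosed animals against vehicle-only controls as a simple quotient.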

[1] = endpoint: mean survival time, dose: 100.0 mg/kg/injection, schedule: Q04DX002 (ip), vehicle: saline with Tween-80
[2] = endpoint: mean survival time, dose: 200.0 mg/kg/injection, schedule: Q04DX002 (ip), vehicle: saline with Tween-80
[3] = endpoint: mean survival time, dose: 100.0 mg/kg/injection, schedule: Q01DX009 (ip), vehicle: saline with Tween-80
[4] = endpoint: mean survival time, dose: 100.0 mg/kg/injection, schedule: Q04DX003 (ip), vehicle: saline with Tween-80
[5] = endpoint: mean survival time, dose: 200.0 mg/kg/injection, schedule: Q01DX009 (ip), vehicle: saline with Tween-80
[6] = endpoint: mean survival time, dose: 200.0 mg/kg/injection, schedule: Q04DX003 (ip), vehicle: saline with Tween-80
[7] = endpoint: mean survival time, dose: 400.0 mg/kg/injection, schedule: Q01DX009 (ip), vehicle: saline with Tween-80
[8] = endpoint: mean survival time, dose: 400.0 mg/kg/injection, schedule: Q04DX003 (ip), vehicle: saline with Tween-80
[9] = endpoint: mean survival time, dose: 12.5 mg/kg/injection, schedule: Q01DX009 (ip), vehicle: saline with Tween-80
[10] = endpoint: mean survival time, dose: 25.0 mg/kg/injection, schedule: Q01DX009 (ip), vehicle: saline with Tween-80
[11] = endpoint: mean survival time, dose: 50.0 mg/kg/injection, schedule: Q01DX009 (ip), vehicle: saline with Tween-80
[12] = endpoint: mean survival time, dose: 100.0 mg/kg/injection, schedule: Q04DX003 (ip), vehicle: saline
[13] = endpoint: mean survival time, dose: 200.0 mg/kg/injection, schedule: Q04DX003 (ip), vehicle: saline
[14] = endpoint: mean survival time, dose: 50.0 mg/kg/injection, schedule: Q04DX002 (ip), vehicle: saline with Tween-80
[15] = endpoint: mean survival time, dose: 100.0 mg/kg/injection, schedule: Q01DX001 (ip), vehicle: saline with Tween-80
[16] = endpoint: mean survival time, dose: 200.0 mg/kg/injection, schedule: Q01DX001 (ip), vehicle: saline with Tween-80
[17] = endpoint: mean survival time, dose: 12.5 mg/kg/injection, schedule: Q01DX009 (ip), vehicle: water
[18] = endpoint: mean survival time, dose: 25.0 mg/kg/injection, schedule: Q01DX009 (ip), vehicle: water
[19] = endpoint: mean survival time, dose: 50.0 mg/kg/injection, schedule: Q01DX009 (ip), vehicle: water
[20] = endpoint: mean survival time, dose: 100.0 mg/kg/injection, schedule: Q01DX009 (ip), vehicle: water
[21] = endpoint: mean survival time, dose: 25.0 mg/kg/injection, schedule: Q04DX002 (ip), vehicle: saline with Tween-80

Measured: T/C

COC(=O)C(Cc1ccc(N(CCCl)CCCl)cc1)N=NNc1nc[nH]c1C(N)=O (stereo not given)
inactive: endpoint: mean survival time, dose: 88.0 mg/kg/injection, schedule: Q01DX001 (ip), vehicle: steriod suspending solution 116 % of control | endpoint: mean survival time, dose: 133.0 mg/kg/injection, schedule: Q01DX001 (ip), vehicle: steriod suspending solution 115 % of control | endpoint: mean survival time, dose: 300.0 mg/kg/injection, schedule: Q01DX001 (ip), vehicle: steriod suspending solution 116 % of control

CCCCCCCCCCCCCCCC(CCCCCC)CCCCCC
inactive: endpoint: mean survival time, dose: 100.0 mg/kg/injection, schedule: Q01DX001 (ip), vehicle: saline sonified 102 % of control | endpoint: mean survival time, dose: 200.0 mg/kg/injection, schedule: Q01DX001 (ip), vehicle: saline sonified 98 % of control | endpoint: mean survival time, dose: 400.0 mg/kg/injection, schedule: Q01DX001 (ip), vehicle: saline sonified 102 % of control

CCOC(=O)/C=C1/C=C(C)CC(C)(C)C1 (tested in a mixture with another compound)
inactive: [1] 98 % of control | [2] 91 % of control | endpoint: mean survival time, dose: 400.0 mg/kg/injection, schedule: Q04DX002 (ip), vehicle: saline with Tween-80 87 % of control

CN(C)c1ccc(CN2CCCN(Cc3ccc(N(C)C)cc3)C2c2cc(Cl)ccc2O)cc1
inactive: [3] 86 % of control | [4] 98 % of control | [5] 93 % of control | [6] 92 % of control | [7] 86 % of control | [8] 92 % of control

Cc1c(C)c(C)c2c(c1C)CCC2O (stereo not given)
inactive: [9] 102 % of control and 105 % of control | [10] 97 % of control and 94 % of control | [11] 100 % of control [middle of 4 runs]

CN(C)c1ccc(/C=C(\C#N)c2ccc([N+](=O)[O-])cc2)c(Cl)c1
inactive: [3] 97 % of control | [5] 97 % of control | [7] 92 % of control

COc1cccc(CCN)c1
inactive: endpoint: mean survival time, dose: 18.75 mg/kg/injection, schedule: Q01DX009 (ip), vehicle: saline sonified 98 % of control | endpoint: mean survival time, dose: 37.5 mg/kg/injection, schedule: Q01DX009 (ip), vehicle: saline sonified 97 % of control | endpoint: mean survival time, dose: 37.5 mg/kg/injection, schedule: Q01DX009 (ip), vehicle: saline with Tween-80 108 % of control | endpoint: mean survival time, dose: 75.0 mg/kg/injection, schedule: Q01DX009 (ip), vehicle: saline sonified 97 % of control | endpoint: mean survival time, dose: 75.0 mg/kg/injection, schedule: Q01DX009 (ip), vehicle: saline with Tween-80 103 % of control

O=[As](c1ccccc1Br)(c1ccccc1Br)c1ccccc1Br
inactive: endpoint: mean survival time, dose: 50.0 mg/kg/injection, schedule: Q04DX003 (ip), vehicle: saline 101 % of control | [12] 100 % of control | [13] 95 % of control

NC(=O)c1ccccc1NC(=O)Nc1ccc(Cl)c(C(F)(F)F)c1
inactive: [11] 87 % of control | [3] 96 % of control | [5] 93 % of control

O=C1NC(c2ccccc2)N=C2Oc3ccccc3C=C12 (stereo not given)
inactive: endpoint: mean survival time, dose: 1.56 mg/kg/injection, schedule: Q01DX009 (ip), vehicle: saline with Tween-80 103 % of control | endpoint: mean survival time, dose: 3.12 mg/kg/injection, schedule: Q01DX009 (ip), vehicle: saline with Tween-80 94 % of control and 97 % of control and 98 % of control | endpoint: mean survival time, dose: 6.25 mg/kg/injection, schedule: Q01DX009 (ip), vehicle: saline with Tween-80 100 % of control (2×) and 103 % of control | [3] 92 % of control

Cc1cc(O)c(O)c([N+](=O)[O-])c1
inactive: [3] 95 % of control | [5] 97 % of control | [7] 97 % of control

CCN(CC)Cc1cc(Nc2ncnc3[nH]c(C)c(C)c23)ccc1O
inactive: [14] 89 % of control | [15] 97 % of control | [16] 100 % of control | [2] 92 % of control

COc1ccc2nc3cc(Cl)ccc3c(Nc3ccc(C(O)CCN(C)C)cc3)c2c1 (stereo not given)
inactive: endpoint: mean survival time, dose: 75.0 mg/kg/injection, schedule: Q01DX001 (ip), vehicle: saline 92 % of control | endpoint: mean survival time, dose: 150.0 mg/kg/injection, schedule: Q01DX001 (ip), vehicle: saline 92 % of control | endpoint: mean survival time, dose: 300.0 mg/kg/injection, schedule: Q01DX001 (ip), vehicle: saline 90 % of control

COC(=O)C(I)C(OC)c1ccccc1 (stereo not given)
inactive: [3] 107 % of control | [5] 100 % of control | [7] 97 % of control

Nc1nc(N)c2nc3c4ccccc4c4ccccc4c3nc2n1
inactive: [15] 95 % of control | [3] 93 % of control | [16] 91 % of control | endpoint: mean survival time, dose: 400.0 mg/kg/injection, schedule: Q01DX001 (ip), vehicle: saline with Tween-80 97 % of control

CC(=O)C1CC(=O)c2c(O)ccc(O)c2C1 (stereo not given)
inactive: [17] 95 % of control | [18] 101 % of control | [19] 95 % of control | [20] 100 % of control | endpoint: mean survival time, dose: 200.0 mg/kg/injection, schedule: Q01DX009 (ip), vehicle: water 100 % of control

CCC(C)(O)C(C)N(C)C1CCCCC1 (stereo not given)
inactive: [12] 97 % of control and 100 % of control | [13] 100 % of control and 97 % of control

CCCCCCCCCCCC[N+]1([O-])CCOCC1
inactive: [21] 101 % of control | [14] 97 % of control | [1] 108 % of control

CC(C)(C[NH-])C[NH-].[Cl][Pt+2][Cl]
inactive: endpoint: median survival time, dose: 0.2 mg/kg/injection, schedule: Q04DX003 (ip), vehicle: water 118 % of control and 110 % of control and 111 % of control

N#Cc1cccc(CN2CCCNCC2)c1
inactive: [17] 98 % of control | [18] 100 % of control | [19] 96 % of control | [20] 105 % of control

O=P1(N(CCCl)CCCl)OCCC(c2ccccc2)N1Cl (stereo not given)
inactive: endpoint: mean survival time, dose: 43.75 mg/kg/injection, schedule: Q01DX001 (ip), vehicle: distilled water + Tween-80 106 % of control | endpoint: mean survival time, dose: 87.5 mg/kg/injection, schedule: Q01DX001 (ip), vehicle: distilled water + Tween-80 103 % of control | endpoint: mean survival time, dose: 175.0 mg/kg/injection, schedule: Q01DX001 (ip), vehicle: distilled water + Tween-80 106 % of control | endpoint: mean survival time, dose: 350.0 mg/kg/injection, schedule: Q01DX001 (ip), vehicle: distilled water + Tween-80 110 % of control

N#CC(CC(=O)c1ccc(Br)cc1)c1ccccc1 (stereo not given)
inactive: [4] 95 % of control | [6] 91 % of control | [8] 95 % of control

O=C(Nc1cc2ccccc2o1)O/N=C/c1ccccn1
inactive: [4] 92 % of control | [6] 92 % of control | [8] 86 % of control

CN1C(=O)C2CCC1C(O)C2 (stereo not given)
inactive: [21] 98 % of control | [14] 106 % of control | [1] 98 % of control | [2] 95 % of control

Nc1ccccc1SSc1ccccc1N
inactive: [4] 98 % of control | [6] 90 % of control

CC[N+](CC)=c1ccc2nc3c(cc(N)c4ccccc43)oc-2c1
inactive: endpoint: mean survival time, dose: 6.25 mg/kg/injection, schedule: Q01DX009 (ip), vehicle: saline sonified 97 % of control | endpoint: mean survival time, dose: 6.25 mg/kg/injection, schedule: Q04DX003 (ip), vehicle: saline with Tween-80 101 % of control | endpoint: mean survival time, dose: 12.5 mg/kg/injection, schedule: Q01DX009 (ip), vehicle: saline sonified 104 % of control | endpoint: mean survival time, dose: 12.5 mg/kg/injection, schedule: Q04DX003 (ip), vehicle: saline with Tween-80 101 % of control | endpoint: mean survival time, dose: 25.0 mg/kg/injection, schedule: Q04DX003 (ip), vehicle: saline with Tween-80 98 % of control

CN(C)CCC(=O)/C=C\c1ccccc1
inactive: [12] 89 % of control

C1CCC2CCCN2CC1 (stereo not given)
inactive: [9] 95 % of control | endpoint: mean survival time, dose: 12.5 mg/kg/injection, schedule: Q04DX003 (ip), vehicle: acetone 94 % of control | [10] 94 % of control | endpoint: mean survival time, dose: 25.0 mg/kg/injection, schedule: Q04DX003 (ip), vehicle: acetone 92 % of control | endpoint: mean survival time, dose: 50.0 mg/kg/injection, schedule: Q04DX003 (ip), vehicle: acetone 100 % of control
